Data taken from US20200306295A1, “METHOD AND DEVICE FOR ANNIHILATION OF Staphylococcus aureus” (priority 2017, published 2020).

Tested on: 200 kinds of cytokines
Test: Fold change of 200 cytokines in homogenized wound tissue
Type: in vivo, Balb/c mice
From the text: To quantify the physiological condition of the wound tissues, we measured the concentrations of 200 kinds of cytokines (Table. 1) from the supernatant of homogenized tissue solution. Cytokines are small secreted proteins released by cells and have specific effect on the interactions and communications between cells (25).
To initiate the formation of a skin wound, five groups (n=5) of eight-week old female Balb/c mice (obtained from Harlan Laboratories, Indianapolis, Ind., USA) were disinfected with ethanol (70%) and shaved on the middle of the back (approximately a one-inch by one-inch square region around the injection site) one day prior to infection as described from a reported procedure (3). To prepare the bacterial inoculum, an aliquot of overnight culture of MRSA USA300 was transferred to fresh Tryptic soy broth and shaken at 37° C. until an OD600 value of ˜1.0 was achieved. The cells were centrifuged, washed once with PBS, re-centrifuged, and then re-suspended in PBS. Mice subsequently received an intradermal injection (40 μL) containing 2.40×10^9 CFU/mL MRSA USA300.
One group of mice was left untreated (negative control). Each group of mice receiving a particular treatment regimen was housed separately in a ventilated cage with appropriate bedding, food, and water. […] Mice were treated twice daily (once every 12 hours) for three days, before they were humanely euthanized via CO2 asphyxiation 12 hours after the last dose was administered. The region around the skin wound was lightly swabbed with ethanol (70%) and excised. The tissue was subsequently homogenized in PBS. The homogenized tissue was then serially diluted in PBS before plating onto mannitol salt agar plates. Plates were incubated for at least 19 hours at 37° C. before viable MRSA CFU/mL were counted for each group. Outlier was removed based upon the Dixon Q Test.

## CC(=O)O[C@H]1C[C@@]2(C)[C@@H](C[C@@H](O)[C@H]3[C@@]4(C)CC[C@@H](O)[C@@H](C)[C@@H]4CC[C@@]32C)/C1=C(\CCC=C(C)C)C(=O)O [fusidic acid]
Cytokine MBL-2, group mean, wound tissue of MRSA-infected mice
  fold change of MBL-2 (mean): 0.0893
Cytokine Meteorin, group mean, wound tissue of MRSA-infected mice
  fold change of Meteorin (mean): 0.3361
Cytokine NOV, group mean, wound tissue of MRSA-infected mice
  fold change of NOV (mean): −0.2053
Cytokine Nope, group mean, wound tissue of MRSA-infected mice
  fold change of Nope (mean): 0.0534
Cytokine OX40 Ligand, group mean, wound tissue of MRSA-infected mice
  fold change of OX40 Ligand (mean): −0.1454
Cytokine Osteoactivin, group mean, wound tissue of MRSA-infected mice
  fold change of Osteoactivin (mean): 1.1132
Cytokine P-Cadherin, group mean, wound tissue of MRSA-infected mice
  fold change of P-Cadherin (mean): 0.5883
Cytokine Periostin, group mean, wound tissue of MRSA-infected mice
  fold change of Periostin (mean): 0.1651
Cytokine PlGF-2, group mean, wound tissue of MRSA-infected mice
  fold change of PlGF-2 (mean): −0.0798
Cytokine Progranulin, group mean, wound tissue of MRSA-infected mice
  fold change of Progranulin (mean): −0.4424
Cytokine Prostasin, group mean, wound tissue of MRSA-infected mice
  fold change of Prostasin (mean): 0.1030
Cytokine Renin 1, group mean, wound tissue of MRSA-infected mice
  fold change of Renin 1 (mean): −0.4138
Cytokine TIM-1, group mean, wound tissue of MRSA-infected mice
  fold change of TIM-1 (mean): −0.0806
Cytokine Testican 3, group mean, wound tissue of MRSA-infected mice
  fold change of Testican 3 (mean): −0.4097
Cytokine Tryptase ε, group mean, wound tissue of MRSA-infected mice
  fold change of Tryptase ε (mean): −0.0627
Fusidic acid alone
  share of 200 cytokines with negative fold change vs untreated: around 50%
mean, wound tissue
  fold change of 4-1BB: −0.0924
  fold change of 6Ckine: 0.0930
  fold change of ACE: −0.3271
  fold change of ADAMTS1: 0.2350
  fold change of ALK-1: −0.0491
  fold change of ANG-3: 0.0313
  fold change of ANGPTL3: −0.2231
  fold change of AR: 0.6274
  fold change of Activin A: 0.2305
  fold change of Adiponen: 0.0147
  fold change of Artemin: 0.4218
  fold change of Axl: 0.0523
  fold change of B7-1: −0.0561
  fold change of BAFF R: 0.0687
  fold change of BLC: −0.3200
  fold change of BTC: 3.8576
  fold change of C5a: 0.1215
  fold change of CCL6: −0.4027
  fold change of CCL28: 1.0791
  fold change of CD6: 0.3476
  fold change of CD27: 0.2818
  fold change of CD27L: −0.0491
  fold change of CD30: 0.0137
  fold change of CD30L: −0.0682
  fold change of CD36: 0.0674
  fold change of CD40: 0.3337
  fold change of CD40L: 0.0244
  fold change of CD48: −0.0498
  fold change of CRP: −0.0863
  fold change of CT-1: −0.0581
  fold change of CTLA4: 0.2149
  fold change of CXCL16: 0.2447
  fold change of Chemerin: 0.1948
  fold change of Chordin: −0.0599
  fold change of Clusterin: 0.2455
  fold change of Cystatin C: −0.0271
  fold change of DLL4: −0.0252
  fold change of Decorin: −0.0222
  fold change of Dkk-1: 0.1157
  fold change of Dtk: 0.1217
  fold change of E-Cadherin: 0.1848
  fold change of E-selectin: −0.2004
  fold change of EDAR: −0.4592
  fold change of EGF: 0.0517
  fold change of Endocan: 0.0559
  fold change of Endoglin: 0.4267
  fold change of Eotaxin: 0.8019
  fold change of Eotaxin-2: 0.0292
  fold change of Epigen: −0.0490
  fold change of Epiregulin: −0.2220
  fold change of Fas: 0.0163
  fold change of Fas L: −0.4112
  fold change of Fcg RIIB: 0.0602
  fold change of Fetuin A: −0.6614
  fold change of Flt-3L: 0.1619
  fold change of Fractalkine: −0.2364
  fold change of G-CSF: 0.1394
  fold change of GITR: 0.3966
  fold change of GITR L: 0.2327
  fold change of GM-CSF: −0.1708
  fold change of Galectin-1: 0.0284
  fold change of Galectin-3: 0.0624
  fold change of Galectin-7: 0.7990
  fold change of Gas 1: 0.0715
  fold change of Gas 6: −0.0661
  fold change of Granzyme B: 0.5603
  fold change of Gremlin: 4.9707
  fold change of H60: 0.2171
  fold change of HAI-1: 0.2271
  fold change of HGF: 0.2701
  fold change of HGF R: 0.0292
  fold change of I-TAC: 0.3744
  fold change of ICAM-1: 1.5512
  fold change of IFNg: −0.0599
  fold change of IFNg R1: 0.0709
  fold change of IGF-1: −0.4445
  fold change of IGFBP-2: −0.0879
  fold change of IGFBP-3: −0.2120
  fold change of IGFBP-5: −0.0782
  fold change of IGFBP-6: −0.2897
  fold change of IL-1 R4: −0.0208
  fold change of IL-1a: −0.0503
  fold change of IL-1b: −0.2158
  fold change of IL-1ra: 0.3851
  fold change of IL-2: 0.0606
  fold change of IL-2 Ra: 0.1879
  fold change of IL-3: −0.1398
  fold change of IL-3 Rb: 0.0789
  fold change of IL-4: −0.0096
  fold change of IL-5: −0.0953
  fold change of IL-6: 0.2682
  fold change of IL-7: 0.1116
  fold change of IL-7 Ra: −0.7276
  fold change of IL-9: 0.1408
  fold change of IL-10: −0.0351
  fold change of IL-12p40: 0.0324
  fold change of IL-12p70: 0.0029
  fold change of IL-13: −0.5654
  fold change of IL-15: −0.0506
  fold change of IL-17: 0.2684
  fold change of IL-17B: −0.0513
  fold change of IL-17B R: 0.4884
  fold change of IL-17E: −0.1800
  fold change of IL-17F: 0.2592
  fold change of IL-20: 0.0953
  fold change of IL-21: −0.4052
  fold change of IL-22: −0.0487
  fold change of IL-23: 0.2627
  fold change of IL-28: −0.1588
  fold change of IL-33: 0.3416
  fold change of JAM-A: 0.3062
  fold change of KC: 0.0909
  fold change of Kremen-1: 0.2672
  fold change of L-Selectin: −0.3559
  fold change of LIX: −0.0313
  fold change of LOX-1: 0.0568
  fold change of Leptin: −0.1199
  fold change of Leptin R: 0.1134
  fold change of Limitin: −0.1844
  fold change of Lipocalin-2: −0.0695
  fold change of Lungkine: −0.0819
  fold change of Lymphotactin: 0.0908
  fold change of MCP-1: 0.0071
  fold change of MCP-5: −0.0915
  fold change of MCSF: −0.5503
  fold change of MDC: −0.0764
  fold change of MFG-E8: 0.4647
  fold change of MIG: 0.5378
  fold change of MIP-1a: −0.3165
  fold change of MIP-1b: −0.5769
  fold change of MIP-1g: 0.0304
  fold change of MIP-2: −0.0070
  fold change of MIP-3a: 0.3460
  fold change of MIP-3b: 0.0690
  fold change of MMP-2: 0.1026
  fold change of MMP-3: −0.1230
  fold change of MMP-10: 0.3470
  fold change of MadCAM-1: −0.0787
  fold change of Marapsin: −0.1703
  fold change of Neprilysin: 0.5936
  fold change of OPG: 0.9914
  fold change of OPN: 0.8216
  fold change of P-selectin: −0.2374
  fold change of PDGF-AA: 0.4578
  fold change of PF4: −0.6256
  fold change of Pentraxin 3: −0.6735
  fold change of Persephin: 0.5348
  fold change of Pro-MMP-9: 0.0197
  fold change of Prolactin: 0.4580
  fold change of RAGE: 0.1727
  fold change of RANTES: −0.2545
  fold change of Resistin: 0.2752
  fold change of SCF: 0.1498
  fold change of SDF-1a: 0.1707
  fold change of SLAM: 0.1871
  fold change of Shh-N: −0.0849
  fold change of TACI: 0.4640
  fold change of TARC: 0.3205
  fold change of TCA-3: −0.1264
  fold change of TCK-1: −0.0185
  fold change of TECK: 0.4529
  fold change of TGFb1: 0.0743
  fold change of TNF RI: −0.1306
  fold change of TNF RII: −0.2811
  fold change of TNFα: −0.4306
  fold change of TPO: 0.2663
  fold change of TRANCE: 0.0310
  fold change of TREM-1: 0.0981
  fold change of TROY: 0.0517
  fold change of TSLP: −0.0086
  fold change of TWEAK: −0.0621
  fold change of TWEAK R: −0.2341
  fold change of TremL1: −0.0440
  fold change of VCAM-1: −0.0283
  fold change of VEGF: 0.0403
  fold change of VEGF R1: 0.1580
  fold change of VEGF R3: 0.1061
  fold change of VEGF-B: 0.0230
  fold change of VEGF-D: 0.0367
  fold change of bFGF: −0.4981
  fold change of gp130: 0.5867
  fold change of sFRP-3: 0.0607
